Results taken from PMC6010130, “Inhibition of Leishmania infantum trypanothione reductase by diaryl sulfide derivatives” (Journal of Enzyme Inhibition and Medicinal Chemistry, 2017).

What was measured:
[1] = molecular target: T1, trypanothione reductase (TR) (Leishmania infantum, UniProt A4HSF7); assay: X-ray crystal structure ([…] Å, soaked oxidized TR); Ki from Dixon plot of the purified enzyme (NADPH oxidation at […] nm); assay type: biochemical
T1 construct: gene TRYR

[2] = molecular target: T1, trypanothione reductase (TR); assay: X-ray crystal structure ([…] Å); assay type: binding

T1 sequence (A4HSF7 1-491): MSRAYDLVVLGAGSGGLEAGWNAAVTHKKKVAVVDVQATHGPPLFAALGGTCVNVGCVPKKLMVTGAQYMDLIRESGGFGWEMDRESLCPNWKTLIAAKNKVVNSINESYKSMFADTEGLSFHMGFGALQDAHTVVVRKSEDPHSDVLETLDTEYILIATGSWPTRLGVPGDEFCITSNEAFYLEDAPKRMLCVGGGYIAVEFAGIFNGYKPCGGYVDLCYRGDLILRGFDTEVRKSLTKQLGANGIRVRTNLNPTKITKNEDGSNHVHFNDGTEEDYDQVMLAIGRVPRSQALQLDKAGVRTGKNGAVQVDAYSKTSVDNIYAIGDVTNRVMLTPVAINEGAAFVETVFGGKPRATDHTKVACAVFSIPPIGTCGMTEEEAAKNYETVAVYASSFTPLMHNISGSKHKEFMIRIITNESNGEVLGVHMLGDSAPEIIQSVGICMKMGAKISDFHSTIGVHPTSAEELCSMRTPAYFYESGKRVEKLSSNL

SMILES: CCC(C)Oc1cc(N)nc(Sc2cccc(Cl)c2)n1 (centres unmarked) [RDS 777, 6-(sec-butoxy)-2-((3-chlorophenyl)thio)pyrimidin-4-amine]
- Ki [1]: 250 ± 180 nM

SMILES: Cc1cc2nc3c(=O)[nH]c(=O)nc-3n(C[C@H](O)[C@H](O)[C@H](O)COP(=O)(O)OP(=O)(O)OC[C@H]3O[C@@H](n4cnc5c(N)ncnc54)[C@H](O)[C@@H]3O)c2cc1C [FAD]
- X-ray crystal structure (3.5 Å) [2]: Each monomer contains a FAD molecule.
